From patent US6843854B2, “Method and apparatus for separating a component from a mixture” (Purdue Research Foundation, priority 2002, dated 2005)
≈ marks a conversion by molar mass, not a printed value.

Assays:
physchem = assay: physchem
Description: The solubility data for each system tested in Table DD, was determined by the following method. First, a measured amount of dry crude mixture (39.3% clari, 37.5% 6,11, and 23.2% other impurities) was added to a measured volume of the mobile phase solvent being used for the particular test case and the mixture was stirred. Heat was added while the mixture was being stirred because dissolution of Clarithromycin and 6,11 is very slow at room temperature. The solution temperature was allowed to approach the boiling temperature of the solvent. The solution was held constant at that temperature until no more solid material was present in the mixture (complete dissolution). […]
In addition to the assembly of the physical system 500, the maximum feed concentration allowed by solubility must be known to optimize the operating parameters with the non-linear, non-equilibrium equations. The solubility was determined in the manner described earlier. Next, the optimal feed concentration was determined and was created by diluting the maximum feed concentration solution. […]
The feed solutions for Experiment #1 were prepared by mixing 5.6 g dry crude (39.3% clari, 37.5% 6,11, 23.2% other) Clarithromycin and 6,11 with 1000 ml of 80% methanol. […] Finally, this solution was filtered to remove any remaining solids and the volume measured to insure there was not significant evaporation. […]

[1] = Solubility in Ethanol/water solutions (excess solid stirred four hours, filtered, HPLC)
Description: The relative solubilities of Clarithromycin and 6,11 at various percentages of Ethanol in the Ethanol/water solution provide a solubility curve for both Clarithromycin and 6,11. The Ethanol used is 200 proof and is available from McCormick Distilling Co. in Weston, Mass. The water used is distilled deionized water obtained from a MILLI-Q™ system available from Millipore located in Bedford, Mass. The solubilities of Clarithromycin and 6,11 are determined by adding an excess amount of the component being tested to the tested Ethanol/water solution and stirring the mixture for four hours at approximately room temperature (24 C.). The resultant solution is then filtered and assayed for concentration using HPLC (high performance liquid chromatography).
Clarithromycin solubility curve 90 was found using pure Clarithromycin. 6,11 solubility curve 92 was found using a binary mixture of Clarithromycin and 6,11.

Row | SMILES | solubility (physchem; 24 °C, organic solvent or mixture, thermodynamic from solid, solubility limit) | solubility ([1]; Ethanol percentages below about 60%) | Ethanol content of the Ethanol/water solution at maximum solubility ([1]; approximately room temperature (24 C.), FIG. 8) | solubility ([1]; various Ethanol/water solutions, approximately room temperature (24 C.), FIG. 8) | solubility limit (physchem)
1 | CC[C@H]1OC(=O)[C@H](C)[C@@H](O[C@H]2C[C@@](C)(OC)[C@@H](O)[C@H](C)O2)[C@H](C)[C@@H](O[C@@H]2O[C@H](C)C[C@H](N(C)C)[C@H]2O)[C@](C)(OC)C[C@@H](C)C(=O)[C@H](C)[C@@H](O)[C@]1(C)O [Clarithromycin, 6-O-methyl erythromycin A] | 2460 µg/mL (≈ 3.29 mM) | very small | about 80 % Ethanol | higher degree of solubility than 6,11 | 
2 | CC[C@H]1OC(=O)[C@H](C)[C@@H](O[C@H]2C[C@@](C)(OC)[C@@H](O)[C@H](C)O2)[C@H](C)[C@@H](O[C@@H]2O[C@H](C)C[C@H](N(C)C)[C@H]2O)[C@](C)(OC)C[C@@H](C)C(=O)[C@H](C)[C@@H](OC)[C@]1(C)O [6,11, 6,11-O-methyl erythromycin A] |  |  |  |  | 3030 µg/mL (≈ 3.98 mM)
